{"source": "patent US8822535B2", "about": "(priority 2005, dated 2014)", "key": {"rats [1]": {"tested_on": "rats", "type": "in vivo, rat", "experimental": "After surgical implantation of catheters and recovery, blood was removed from conscious animals in 40 minutes. […] Three hours after the end of the bleed, surviving animals were given one shed-blood volume of lactated ringers solution intravenously."}, "mice [2]": {"tested_on": "mice", "assay": "Gas matrix: metabolic flexibility in altered gas environments, mice", "type": "in vivo, mouse", "conditions": "0.01% in room air, ambient 7 to 10° C., 6-hour treatment", "experimental": "(§1) Metabolic flexibility was evaluated in mice rats and dogs using altered gas environments. Three parameters were used to define this reduction in metabolism including changes in carbon dioxide production, oxygen consumption measured by respirometry, and core temperature as measured using telemetry. In experiments with mice and rats the animals were placed into sealed chambers with one gas import and one gas export. For dogs a mask was placed over the snout of the animal with two hoses (import and export) attached to the mask. The flow rate of gas for each of the animals mice—500 cc per minute, rats—2 liters per minute, and dogs 40 liters per minute. Each atmosphere was constructed from compressed gas by dilution into room air unless otherwise noted. For rat and mouse experiments the ambient temperature was 7 to 10° C. during exposure to the test gases. For dogs ambient temperature was room temperature (22° C.).\n(§2) Evidence of depression in metabolic rate of greater than 5-fold as judged by carbon dioxide production or oxygen consumption during a 6-hour treatment is described by “Yes”; […]; “N/D” denotes experiments not done. The temperature drop in the dog experiment (Carbon dioxide+low oxygen+Helium) was approximately 1.5° C. over the course of 30 minutes of exposure. This drop in temperature was considered significant because the dog was 12 kg and no such temperature drop was seen during extensive baseline recording of the animal in room air."}, "[3]": {"conditions": "in vivo; cited from earlier work"}, "rats [4]": {"tested_on": "rats", "protocol": "On the day of the experiment, catheters were surgically implanted into the right femoral artery and vein. Catheters exited behind scapulae. Rats were administered buprenorphine post-surgically and allowed to recover.\nThe anti-coagulant drug heparin (80-100 units) was administered intravenously as a bolus to decrease the clotting ability of the blood and enhance hemorrhage. […] Catheters, temperature probe, and gas sampling tube were passed through a hole drilled in the middle of the lid. Temperature was maintained at approximately isothermal temperature (27+/−2° C.).\nThe hemorrhage model was defined by the removal of 60% of total body blood over the course of a 40 minute bleed. Blood was removed using a peristaltic pump.\nBlood was removed at the calculated rate via the femoral catheter artery. Blood was weighed as it was removed.\nMetabolic rate was determined by measuring CO2 production (Licor Li7000). Temperature and CO2 data were collected (ADI PowerLab). Arterial blood values were measured (I-Stat blood chemistry analyzer). Following the bleed, animals were placed in a cage for three hours and observed. At the end of three hours, surviving rats were given lactated ringers ad libitum. For non-surviving animals, time of death was declared when animals stopped breathing and CO2 production ceased. […]"}, "dogs": {"tested_on": "dogs", "assay": "Gas matrix: metabolic flexibility in altered gas environments, dogs", "type": "in vivo, dog", "conditions": "0.85% in room air, mask, room temperature (22° C.)", "experimental": "as §1, §2"}, "rats [5]": {"tested_on": "rats", "assay": "Gas matrix: metabolic flexibility in altered gas environments, rats", "type": "in vivo, rat", "conditions": "0.03% in room air, ambient 7 to 10° C., 6-hour treatment", "experimental": "as §1, §2"}, "mice [6]": {"tested_on": "mice", "type": "in vivo, mouse (C57BL6/J)", "experimental": "The same flow rates were used as described above (i.e., […] in a 0.5 L chamber).\nExperiments were conducted to test the ability of a mouse in a ‘hibernation-like’ state to survive in conditions where it would normally die. The adverse condition was hypoxia, which the literature states that mice (C57BL6/J males) can live in for a maximum of 20 minutes at 5% Oxygen.\nThe hypoxic exposure was timed (indicated below) and viability of the mice was determined."}, "mice [7]": {"tested_on": "mice", "assay": "Cyanide exposure experiment in mice", "type": "in vivo, mouse", "conditions": "80 ppm in room air at room temperature", "experimental": "To measure metabolic effects of HCN, mice were exposed to increasing concentrations of HCN starting at 1 ppm. Oxygen (O2) consumption, carbon dioxide (CO2) production, body core temperature (BCT) and behavior were measured or evaluated. […]. A metabolic effect is defined as a 10% change in less than 10 minutes in any of the assay values described above."}, "C. elegans nematodes": {"tested_on": "C. elegans nematodes", "conditions": "in vivo"}, "mice [8]": {"tested_on": "mice", "type": "in vivo, mouse (C57Bl/6)"}, "[9]": {"tested_on": "zebrafish (D. rerio) embryos", "assay": "Zebrafish embryo heart rate screening assay", "type": "in vivo", "description": "These embryos are transparent, allowing one to view, using a dissecting microscope with a 4-20 times power lense, the heart beat and resultant blood flow into the main vessel along the back and into the tail. Heart rate in these animals is an indicator of the metabolic activity of the organism, such that a reduction in the heart rate signifies a reduction in metabolism. Embryos were dissected from their egg casings and distributed five per well in flat bottomed polystyrene tissue culture plates and incubated in 1 mL of standard fish water. The fishwater is composed of 1 teaspoon Instant Ocean (artificial sea water mixture, Aquarium Systems, Inc.) per 5 gallons. Calcium chloride is adjusted to 150 ppm and sodium bicarbonate to ˜100 ppm."}}, "note": "Several values for one entry are separate records, joined by “and”; a condition that tells them apart may be missing. Identical values can stand only once. Like-named read-outs stand apart in the source and are kept apart here."}
{"smiles": "S", "note": "[H2S, hydrogen sulfide]", "values": [{"measurement": "rats surviving hemorrhage and 3 hour shock period", "setting": "rats [1]; 300 ppm H2S", "value": "6/7"}, {"measurement": "Complete recovery", "setting": "rats [1]; 300 ppm H2S from 30% blood loss to end of 40 minute bleed", "value": "85.7% (6/7)"}, {"measurement": "CO2 production (VCO2)", "setting": "rats [1]; 15 minutes post bleed", "value": "17 ± 3", "unit": "mL/min/kg"}, {"measurement": "Blood CO2 content (pCO2)", "setting": "rats [1]; End of bleed", "value": "35 +/− 6 mmHg"}, {"measurement": "Blood Lactate", "setting": "rats [1]; End of bleed", "value": "6.6 ± 1", "unit": "mmol/L"}, {"measurement": "Blood base excess", "setting": "rats [1]; End of bleed", "value": "-5 ± 4", "unit": "mmol/L"}, {"measurement": "Blood bicarbonate content ([HCO3])", "setting": "rats [1]; End of bleed", "value": "21 ± 3", "unit": "mmol/L"}, {"measurement": "Blood pH", "setting": "rats [1]; End of bleed", "value": "7.41 +/− 0.02"}, {"measurement": "CO2 production (VCO2)", "setting": "rats [1]; End of bleed", "value": "16 ± 2", "unit": "mL/min/kg"}, {"measurement": "CO2 production (VCO2)", "setting": "rats [1]; Mid-bleed", "value": "20 ± 2", "unit": "mL/min/kg"}, {"measurement": "Blood CO2 content (pCO2)", "setting": "rats [1]; Pre-bleed", "value": "45 +/− 6 mmHg"}, {"measurement": "Blood Lactate", "setting": "rats [1]; Pre-bleed", "value": "1.4 ± 0.5", "unit": "mmol/L"}, {"measurement": "Blood base excess", "setting": "rats [1]; Pre-bleed", "value": "8 ± 2", "unit": "mmol/L"}, {"measurement": "Blood bicarbonate content ([HCO3])", "setting": "rats [1]; Pre-bleed", "value": "32 ± 3", "unit": "mmol/L"}, {"measurement": "Blood pH", "setting": "rats [1]; Pre-bleed", "value": "7.46 +/− 0.03"}, {"measurement": "CO2 production (VCO2)", "setting": "rats [1]; Pre-bleed", "value": "25 ± 4", "unit": "mL/min/kg"}, {"measurement": "Time to death of non-survivors", "setting": "rats [1]; after the end of the bleed, 300 ppm H2S", "value": "174 min and 174 (1/7) min"}, {"measurement": "depression in metabolic rate, Mouse", "setting": "mice [2]", "value": "Yes 0.01% (Evidence of depression in metabolic rate of greater than 5-fold as judged by carbon dioxide production or oxygen consumption during a 6-hour treatment is described by “Yes”)"}, {"measurement": "LD50", "setting": "[3]", "value": "approximately 700 ppm"}, {"measurement": "adverse effects, gross and histopathological examination", "setting": "[3]", "value": "no observed adverse effect"}, {"measurement": "behavioral toxicity", "setting": "[3]", "value": "Significant reductions in motor activity, water maze performance and body temperature"}, {"measurement": "perinatal toxicity", "setting": "[3]", "value": "no neuropathological effects"}, {"measurement": "tolerability", "setting": "[3]", "value": "innocuous"}, {"measurement": "survival of the hemorrhage", "setting": "rats [4]; 2000 ppm H2S in room air at 20 minutes of the 40 minute bleed, generally 1 to 2 minutes, 7 out of 8", "value": 88, "unit": "%"}, {"measurement": "signs during exposure", "setting": "rats [4]; rat, in vivo", "value": "apnea and dystonia"}, {"measurement": "depression in metabolic rate, Dog", "setting": "dogs", "value": "No 0.85% (“No” (reduction or less than a 5-fold reduction in these values is described as such)"}, {"measurement": "depression in metabolic rate, Rat", "setting": "rats [5]", "value": "Yes 0.03% (Evidence of depression in metabolic rate of greater than 5-fold as judged by carbon dioxide production or oxygen consumption during a 6-hour treatment is described by “Yes”)"}, {"measurement": "Time in Hypoxia", "setting": "mice [6]; ambient 20° C., 5 hrs in 80 ppm H2S prior, 4% oxygen, result life", "value": 28, "unit": "min"}, {"measurement": "Time in Hypoxia", "setting": "mice [6]; ambient 20° C., 5 hrs in 80 ppm H2S prior, 5.00% oxygen, result life", "value": 60, "unit": "min"}, {"measurement": "Time in Hypoxia", "setting": "mice [6]; ambient 20° C., 5 hrs in 80 ppm H2S prior, 5.20% oxygen, result life", "value": 11, "unit": "min"}, {"measurement": "Time in Hypoxia", "setting": "mice [6]; ambient 20° C., 5.5 hrs in 80 ppm H2S prior, 5.00% oxygen, result life", "value": 25, "unit": "min"}, {"measurement": "Time in Hypoxia", "setting": "mice [6]; ambient 24° C., 80 ppm H2S simultaneous with hypoxia, 5.10% oxygen, result dead", "value": 10, "unit": "min"}, {"measurement": "Time in Hypoxia", "setting": "mice [6]; ambient 24° C., 8 minutes in 80 ppm H2S prior, 4.00% oxygen, result dead", "value": 8, "unit": "min"}, {"measurement": "Time in Hypoxia", "setting": "mice [6]; ambient 24° C., 8 minutes in 80 ppm H2S prior, 4.50% oxygen, result dead", "value": 23, "unit": "min"}, {"measurement": "Time in Hypoxia", "setting": "mice [6]; ambient 24° C., 8 minutes in 80 ppm H2S prior, 5% oxygen, result dead", "value": 20, "unit": "min"}, {"measurement": "Time in Hypoxia", "setting": "mice [6]; ambient 24° C., 8 minutes in 80 ppm H2S prior, 5.00% oxygen, result life", "value": 50, "unit": "min"}, {"measurement": "Time in Hypoxia", "setting": "mice [6]; ambient 24° C., 10 minutes in 90 ppm H2S prior, 5% oxygen, result dead", "value": 56, "unit": "min"}, {"measurement": "Time in Hypoxia", "setting": "mice [6]; ambient 30° C., 8 minutes in 80 ppm H2S prior, 4.50% oxygen, result dead", "value": 6, "unit": "min"}, {"measurement": "time survived in hypoxia", "setting": "mice [6]; pre-equilibrated to 80 ppm H2S for 3 hours, 5.2% oxygen, still doing well 3 weeks later", "value": 11, "unit": "min"}, {"measurement": "core temperature", "setting": "mice [7]", "value": "approximately 28 °C"}, {"measurement": "lethality", "setting": "C. elegans nematodes", "value": "considerable lethality"}, {"measurement": "progeny", "setting": "C. elegans nematodes", "value": "same number of progeny"}, {"measurement": "drop in CO2 production during hypoxia from pre-exposure level", "setting": "mice [8]; 150 ppm H2S 20 minutes, then 5% O2 for several hours (FIG. 25)", "value": "approximately 50 fold"}, {"measurement": "CO2 output", "setting": "mice [8]; 150 ppm H2S 20 minutes, then several hours of 5% O2, pre-exposure approximately 2500 ppm", "value": "approximately 50 ppm"}, {"measurement": "survival time at lethal oxygen tensions", "setting": "mice [8]; 150 ppm H2S prior to oxygen tension reduced to between 5% and 2.5% (FIG. 24)", "value": "at least 60 minutes"}, {"measurement": "reduction in CO2 evolution", "setting": "mice [8]; pre-treatment with H2S, new lower baseline", "value": "50-60%"}, {"measurement": "heart rate after recovery", "setting": "[9]; 24 hours after initial exposure, solution replaced with normal fishwater after five hours", "value": "160-200 beats per minute"}, {"measurement": "heart beats", "setting": "[9]; 48 hour old embryos, hydrogen sulfide-containing fishwater (approximately 0.1 molar), 2-3 hours following exposure", "value": "60-80 beats per minute"}]}
